Key:
Type in all cases: in vivo, Sprague Dawley rats
[1] = tested on: CKD rats; assay: Blood urine nitrogen (BUN) and serum creatine (CR) levels in 5/6 nephrectomy CKD rats; conditions: 5/6 nephrectomy rats
Method: Sprague Dawley rats (7 weeks old) were kept in pathogen-free environment under 12:12 light-dark cycle with food and water provided ad libitum, ambient temperature and relative humidity were respectively set at 24±2° C. and 50±20%. All procedures involving animal studies of the present disclosure comply with the “Guideline for the Care and Use of Laboratory Animals” issued by The Chinese-Taipei Society of Laboratory Animal Sciences. SD rats (about 10 weeks old) scheduled to undergo 5/6 nephrectomy or sham surgery were anesthetized by Zoletil 50/Xylazine (6 mg/1.3 mg/Kg, i.p.). Then, the left kidney was exposed, and the upper and lower poles were tied with a suture line, followed by right nephrectomy. The peritoneum and skin were then sutured, and the animals were returned to their individual cages. For animals underwent sham surgery, the left kidney was exposed in similar manner, but was then placed back into the abdominal cavity without further treatment, peritoneum and skin were then sutured. Two weeks after sham or 5/6 nephrectomy surgery, the animals were subjected to a 24-hour urine collection and non-invasive tail blood pressure measurement every 4 weeks. Four weeks after the surgery, rats underwent 5/6 nephrectomy or shame surgery were randomly assigned into two groups, i.e., the control and the telbivudine groups, in which the control group received saline treatment, and rats in the telbivudine group received telbivudine (10 mg/mL/Kg) treatment for 8 or 12 weeks. Animals were then sacrificed, and kidney and heart biopsy samples were obtained. In this example, to evaluate the therapeutic function of telbivudine, animals were first subject to 5/6 nephrectomy to induce in vivo kidney failure before being treated with telbivudine. 5/6 nephrectomy is a procedure in which one kidney of a test animal is removed and 2/3 of the remaining kidney is ablated, thereby mimics the progressive renal failure after loss of renal mass in humans. Briefly, approximately 50% of the remaining kidney of the rat was removed by polar excision 1-2 weeks after uni-nephrectomy. Then, the animals were randomly assigned to two groups, the telbivudine group and the control group. […] Blood and urine samples were respectively collected on designated days and analyzed for the levels of blood urine nitrogen (BUN), serum creatine (CR), and hepatic enzymes (i.e., alanine aminotransferase (ALT) and aspartate aminotransferase (AST)). Heart function was determined by monitoring the changes in diastolic parameter-Tissue Velocity Imaging ([…] ratio, and the strain in cardia muscle (C_strain), left ventrical mass ([…]). Animals were sacrificed after the experiments were finished, and kidney biopsy samples were obtained.

[2] = tested on: IL-6, TGF-β, TIMP1 and COL-1-A1 in kidney tissue of CKD rats; assay: Quantitative RT-PCR of inflammatory genes in kidney tissue of CKD rats
Method: SD rats (about 10 weeks old) scheduled to undergo 5/6 nephrectomy or sham surgery were anesthetized by Zoletil 50/Xylazine (6 mg/1.3 mg/Kg, i.p.). Then, the left kidney was exposed, and the upper and lower poles were tied with a suture line, followed by right nephrectomy. The peritoneum and skin were then sutured, and the animals were returned to their individual cages. […] Two weeks after sham or 5/6 nephrectomy surgery, the animals were subjected to a 24-hour urine collection and non-invasive tail blood pressure measurement every 4 weeks. Four weeks after the surgery, rats underwent 5/6 nephrectomy or shame surgery were randomly assigned into two groups, i.e., the control and the telbivudine groups, in which the control group received saline treatment, and rats in the telbivudine group received telbivudine (10 mg/mL/Kg) treatment for 8 or 12 weeks. Animals were then sacrificed, and kidney and heart biopsy samples were obtained.
Total RNA was extracted from fresh frozen renal and heart tissues using the Trizol Reagent (Life Technologies), according to the manufacturer protocol. Briefly, renal cortex or heart tissue (150 mg) was homogenized with 1 ml Trizol, and RNA-containing aqueous phase was obtained by centrifugation. Following the precipitation of RNA by centrifugation with 0.5 volume isopropanol and purification with 75% ethanol, the extracted total RNA was dissolved in 80 μL nuclease-free deionized distilled water and stored at −20° C. The concentration and purity of RNA were determined by Nanodrop Spectrophotometer (Thermo Scientific). First-strand cDNAs were synthesized from template RNA (1 μg) using Transcriptor First Strand cDNA Synthesis Kit (Roche), according to the manufacturer's protocol. Real-time PCR was performed using 2 μL template in a 20-μL reaction containing 1 μM of each primer and 10 μLLightCyclerFastStartUniversal SYBR Green Master (ROX) (Roche). […]
(§1) 5/6 nephrectomy is a procedure in which one kidney of a test animal is removed and 2/3 of the remaining kidney is ablated, thereby mimics the progressive renal failure after loss of renal mass in humans. […] Blood and urine samples were respectively collected on designated days and analyzed for the levels of blood urine nitrogen (BUN), serum creatine (CR), and hepatic enzymes (i.e., alanine aminotransferase (ALT) and aspartate aminotransferase (AST)). Heart function was determined by monitoring the changes in diastolic parameter—Tissue Velocity Imaging (TVI_V), E/A ratio, and the strain in cardia muscle (C_strain), left ventrical mass (LVMASS). […]

[3] = tested on: CKD rats; assay: Heart fibrosis in CKD rats; conditions: heart tissue of CKD rats, telbivudine-treated vs untreated (FIG. 5)
Method: SD rats (about 10 weeks old) scheduled to undergo 5/6 nephrectomy or sham surgery were anesthetized by Zoletil 50/Xylazine (6 mg/1.3 mg/Kg, i.p.). Then, the left kidney was exposed, and the upper and lower poles were tied with a suture line, followed by right nephrectomy. The peritoneum and skin were then sutured, and the animals were returned to their individual cages. […] Two weeks after sham or 5/6 nephrectomy surgery, the animals were subjected to a 24-hour urine collection and non-invasive tail blood pressure measurement every 4 weeks. […]
as §1

[4] = telbivudine orally 100 mg/Kg for 8 weeks, vs untreated CKD
[5] = telbivudine orally 100 mg/Kg for 12 weeks

SMILES: Cc1cn([C@@H]2C[C@@H](O)[C@H](CO)O2)c(=O)[nH]c1=O [telbivudine]
- level of BUN (blood urine nitrogen) [1, 4]: significant reduction
- level of CR (serum creatine) [1, 4]: significant reduction
- level of BUN (blood urine nitrogen) [1, 5]: most significant
- level of CR (serum creatine) [1, 5]: most significant
- mRNA level of COL-1-A1 [2]: reduced
- mRNA level of IL-6 [2]: reduced
- mRNA level of TGF-β [2]: reduced
- mRNA level of TIMP1 [2]: reduced
- extent of fibrotic tissues in heart [3]: markedly reduced
